Test results taken from PubChem BioAssay (NCI).
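Method: 48-hour compound exposure of cells in 96-well plates, five concentrations, linear interpolation of endpoints. Definition used: TGI = concentration required for complete inhibition of growth.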

Legend:
Assay in all cases: inhibition of tumour cell growth, NCI panel, 48 h
786-0 renal = test system: 786-0 renal
A498 renal = test system: A498 renal
A549 NSCLC = test system: A549 NSCLC
ACHN renal = test system: ACHN renal
CAKI-1 renal = test system: CAKI-1 renal
CCRF-CEM leukemia = test system: CCRF-CEM leukemia
COLO 205 colon = test system: COLO 205 colon
DLD-1 colon = test system: DLD-1 colon
DMS 114 small cell lung = test system: DMS 114 small cell lung
DMS 273 small cell lung = test system: DMS 273 small cell lung
EKVX NSCLC = test system: EKVX NSCLC
HCC-2998 colon = test system: HCC-2998 colon
HCT-116 colon = test system: HCT-116 colon
HCT-15 colon = test system: HCT-15 colon
HL-60(TB) leukemia = test system: HL-60(TB) leukemia
HOP-18 NSCLC = test system: HOP-18 NSCLC
HOP-62 NSCLC = test system: HOP-62 NSCLC
HOP-92 NSCLC = test system: HOP-92 NSCLC
HT29 colon = test system: HT29 colon
IGROV1 ovarian = test system: IGROV1 ovarian
K-562 leukemia = test system: K-562 leukemia
KM12 colon = test system: KM12 colon
KM20L2 colon = test system: KM20L2 colon
LOX IMVI melanoma = test system: LOX IMVI melanoma
LXFL 529 NSCLC = test system: LXFL 529 NSCLC
M14 melanoma = test system: M14 melanoma
M19-MEL melanoma = test system: M19-MEL melanoma
MALME-3M melanoma = test system: MALME-3M melanoma
MOLT-4 leukemia = test system: MOLT-4 leukemia
NCI-H226 lung = test system: NCI-H226 lung
NCI-H23 lung = test system: NCI-H23 lung
NCI-H460 lung = test system: NCI-H460 lung
NCI-H522 lung = test system: NCI-H522 lung
OVCAR-3 ovarian = test system: OVCAR-3 ovarian
OVCAR-4 ovarian = test system: OVCAR-4 ovarian
OVCAR-5 ovarian = test system: OVCAR-5 ovarian
OVCAR-8 ovarian = test system: OVCAR-8 ovarian
RPMI-8226 leukemia = test system: RPMI-8226 leukemia
RXF 393 renal = test system: RXF 393 renal
RXF-631 renal = test system: RXF-631 renal
SF-268 CNS = test system: SF-268 CNS
SF-295 CNS = test system: SF-295 CNS
SF-539 CNS = test system: SF-539 CNS
SK-MEL-2 melanoma = test system: SK-MEL-2 melanoma
SK-MEL-28 melanoma = test system: SK-MEL-28 melanoma
SK-MEL-5 melanoma = test system: SK-MEL-5 melanoma
SK-OV-3 ovarian = test system: SK-OV-3 ovarian
SN12C renal = test system: SN12C renal
SNB-19 CNS = test system: SNB-19 CNS
SNB-75 CNS = test system: SNB-75 CNS
SNB-78 CNS = test system: SNB-78 CNS
SR leukemia = test system: SR leukemia
SW-620 colon = test system: SW-620 colon
TK-10 renal = test system: TK-10 renal
U251 CNS = test system: U251 CNS
UACC-257 melanoma = test system: UACC-257 melanoma
UACC-62 melanoma = test system: UACC-62 melanoma
UO-31 renal = test system: UO-31 renal
XF 498 CNS = test system: XF 498 CNS

COC(=O)C(C(=O)C(=O)Nc1ccc(Br)cc1)c1nc2ccc(Cl)cc2[nH]c1=O (centres undefined)
TGI (786-0 renal): > 100 µM
TGI (A498 renal): > 100 µM
TGI (A549 NSCLC): > 100 µM
TGI (ACHN renal): > 100 µM
TGI (CAKI-1 renal): > 100 µM
TGI (CCRF-CEM leukemia): > 100 µM
TGI (COLO 205 colon): > 61.3 µM
TGI (DLD-1 colon): > 100 µM
TGI (DMS 114 small cell lung): > 100 µM
TGI (DMS 273 small cell lung): > 100 µM
TGI (EKVX NSCLC): > 100 µM
TGI (HCC-2998 colon): > 100 µM
TGI (HCT-116 colon): > 100 µM
TGI (HCT-15 colon): > 55.9 µM
TGI (HL-60(TB) leukemia): > 100 µM
TGI (HOP-18 NSCLC): > 100 µM
TGI (HOP-62 NSCLC): > 100 µM
TGI (HOP-92 NSCLC): > 100 µM
TGI (HT29 colon): > 72.2 µM
TGI (IGROV1 ovarian): > 100 µM
TGI (K-562 leukemia): > 100 µM
TGI (KM12 colon): > 100 µM
TGI (KM20L2 colon): > 100 µM
TGI (LOX IMVI melanoma): > 100 µM
TGI (LXFL 529 NSCLC): > 100 µM
TGI (M14 melanoma): > 100 µM
TGI (M19-MEL melanoma): > 100 µM
TGI (MALME-3M melanoma): > 100 µM
TGI (MOLT-4 leukemia): > 100 µM
TGI (NCI-H226 lung): > 100 µM
TGI (NCI-H23 lung): > 100 µM
TGI (NCI-H460 lung): > 100 µM
TGI (NCI-H522 lung): > 100 µM
TGI (OVCAR-3 ovarian): > 100 µM
TGI (OVCAR-4 ovarian): > 71.3 µM
TGI (OVCAR-5 ovarian): > 100 µM
TGI (OVCAR-8 ovarian): > 100 µM
TGI (RPMI-8226 leukemia): > 100 µM
TGI (RXF 393 renal): > 100 µM
TGI (RXF-631 renal): > 100 µM
TGI (SF-268 CNS): > 100 µM
TGI (SF-295 CNS): > 100 µM
TGI (SF-539 CNS): > 100 µM
TGI (SK-MEL-2 melanoma): > 100 µM
TGI (SK-MEL-28 melanoma): > 100 µM
TGI (SK-MEL-5 melanoma): > 100 µM
TGI (SK-OV-3 ovarian): > 100 µM
TGI (SN12C renal): > 100 µM
TGI (SNB-19 CNS): > 100 µM
TGI (SNB-75 CNS): > 100 µM
TGI (SNB-78 CNS): > 100 µM
TGI (SR leukemia): > 100 µM
TGI (SW-620 colon): > 41.4 µM
TGI (TK-10 renal): > 100 µM
TGI (U251 CNS): > 100 µM
TGI (UACC-257 melanoma): > 100 µM
TGI (UACC-62 melanoma): > 100 µM
TGI (UO-31 renal): > 100 µM
TGI (XF 498 CNS): > 100 µM

C[C@]12CCc3nonc3C1CC[C@@H]1C2CC[C@]2(C)C(=O)/C(=N\O)CC12 (some centres undefined)
TGI (786-0 renal): > 100 µM
TGI (A498 renal): > 100 µM
TGI (A549 NSCLC): > 100 µM
TGI (ACHN renal): > 100 µM
TGI (CAKI-1 renal): > 100 µM
TGI (CCRF-CEM leukemia): > 100 µM
TGI (COLO 205 colon): > 100 µM
TGI (DLD-1 colon): > 100 µM
TGI (DMS 114 small cell lung): > 100 µM
TGI (DMS 273 small cell lung): > 100 µM
TGI (EKVX NSCLC): > 100 µM
TGI (HCC-2998 colon): > 100 µM
TGI (HCT-116 colon): > 100 µM
TGI (HCT-15 colon): > 100 µM
TGI (HL-60(TB) leukemia): 3.69 µM
TGI (HOP-18 NSCLC): > 100 µM
TGI (HOP-62 NSCLC): > 100 µM
TGI (HOP-92 NSCLC): > 100 µM
TGI (HT29 colon): > 100 µM
TGI (IGROV1 ovarian): > 100 µM
TGI (K-562 leukemia): > 100 µM
TGI (KM12 colon): > 100 µM
TGI (KM20L2 colon): > 100 µM
TGI (LOX IMVI melanoma): > 100 µM
TGI (LXFL 529 NSCLC): > 100 µM
TGI (M14 melanoma): > 100 µM
TGI (M19-MEL melanoma): > 100 µM
TGI (MALME-3M melanoma): > 100 µM
TGI (MOLT-4 leukemia): > 100 µM
TGI (NCI-H226 lung): > 100 µM
TGI (NCI-H23 lung): > 100 µM
TGI (NCI-H460 lung): > 100 µM
TGI (NCI-H522 lung): 32 µM
TGI (OVCAR-3 ovarian): > 100 µM
TGI (OVCAR-4 ovarian): > 100 µM
TGI (OVCAR-5 ovarian): > 100 µM
TGI (OVCAR-8 ovarian): > 100 µM
TGI (RPMI-8226 leukemia): > 100 µM
TGI (RXF 393 renal): > 100 µM
TGI (RXF-631 renal): > 100 µM
TGI (SF-268 CNS): > 100 µM
TGI (SF-295 CNS): > 100 µM
TGI (SF-539 CNS): > 100 µM
TGI (SK-MEL-2 melanoma): > 100 µM
TGI (SK-MEL-28 melanoma): > 100 µM
TGI (SK-MEL-5 melanoma): > 100 µM
TGI (SK-OV-3 ovarian): > 100 µM
TGI (SN12C renal): > 100 µM
TGI (SNB-19 CNS): > 100 µM
TGI (SNB-75 CNS): > 100 µM
TGI (SNB-78 CNS): > 100 µM
TGI (SR leukemia): > 100 µM
TGI (SW-620 colon): > 100 µM
TGI (TK-10 renal): > 100 µM
TGI (U251 CNS): > 100 µM
TGI (UACC-257 melanoma): > 100 µM
TGI (UACC-62 melanoma): > 100 µM
TGI (UO-31 renal): > 100 µM
TGI (XF 498 CNS): > 100 µM

NC(=O)c1ncn2c1NCC1OC2C(O)C1O (centres undefined)
TGI (786-0 renal): > 100 µM
TGI (A498 renal): > 100 µM
TGI (A549 NSCLC): > 100 µM
TGI (ACHN renal): > 100 µM
TGI (CAKI-1 renal): > 100 µM
TGI (CCRF-CEM leukemia): > 100 µM
TGI (COLO 205 colon): > 100 µM
TGI (DLD-1 colon): > 100 µM
TGI (DMS 114 small cell lung): > 100 µM
TGI (DMS 273 small cell lung): > 100 µM
TGI (EKVX NSCLC): > 100 µM
TGI (HCC-2998 colon): > 100 µM
TGI (HCT-116 colon): > 100 µM
TGI (HL-60(TB) leukemia): > 100 µM
TGI (HOP-18 NSCLC): > 100 µM
TGI (HOP-62 NSCLC): > 100 µM
TGI (HOP-92 NSCLC): > 100 µM
TGI (HT29 colon): > 100 µM
TGI (IGROV1 ovarian): > 100 µM
TGI (K-562 leukemia): > 100 µM
TGI (KM12 colon): > 100 µM
TGI (KM20L2 colon): > 100 µM
TGI (LOX IMVI melanoma): > 100 µM
TGI (LXFL 529 NSCLC): > 100 µM
TGI (M14 melanoma): > 100 µM
TGI (M19-MEL melanoma): > 100 µM
TGI (MALME-3M melanoma): > 100 µM
TGI (MOLT-4 leukemia): > 100 µM
TGI (NCI-H226 lung): > 100 µM
TGI (NCI-H23 lung): > 100 µM
TGI (NCI-H522 lung): > 100 µM
TGI (OVCAR-3 ovarian): > 100 µM
TGI (OVCAR-4 ovarian): > 100 µM
TGI (OVCAR-5 ovarian): > 100 µM
TGI (OVCAR-8 ovarian): > 100 µM
TGI (RXF 393 renal): > 100 µM
TGI (RXF-631 renal): > 100 µM
TGI (SF-268 CNS): > 100 µM
TGI (SF-295 CNS): > 100 µM
TGI (SF-539 CNS): > 100 µM
TGI (SK-MEL-2 melanoma): > 100 µM
TGI (SK-MEL-28 melanoma): > 100 µM
TGI (SK-MEL-5 melanoma): > 100 µM
TGI (SK-OV-3 ovarian): > 100 µM
TGI (SN12C renal): > 100 µM
TGI (SNB-19 CNS): > 100 µM
TGI (SNB-75 CNS): > 100 µM
TGI (SNB-78 CNS): > 100 µM
TGI (SR leukemia): > 100 µM
TGI (SW-620 colon): > 100 µM
TGI (TK-10 renal): > 100 µM
TGI (U251 CNS): > 100 µM
TGI (UACC-257 melanoma): > 100 µM
TGI (UACC-62 melanoma): > 100 µM
TGI (UO-31 renal): > 100 µM
TGI (XF 498 CNS): > 100 µM
